Patent publication US6653294B2, “Use of chitinous materials for inhibiting cellular nitric oxide production” (Food Industry Research & Development Institute, priority 2000, dated 2003)

Tests used:
[1] = test system: activated RAW 264.7 cells; assay: Measurement of NO production via nitrite detection (Griess) in IFN-γ and LPS activated RAW 264.7 cells; format: cell-based, mouse; settings: for Nitrite Production / Nitrite Production as Percentage of Control: IFN-γ + LPS; for Effect on NO production, in words (Table 2): conditions of Table 2 (2 and 10 μg/ml)
Experimental: (§1) NIH/3T3 (mouse embryo fibroblast, CCRC 60008) and RAW 264.7 (mouse monocyte/macrophage, CCRC 60001) cell lines were obtained from Culture Collection and Research Center (CCRC), Taiwan. Both cell lines were cultured in Dulbecco's modified essential medium (DMEM, GIBCO BRL, Rockville, Md.) containing 1.5 g/L NaHCO3 supplemented with 10% fetal bovine serum (Hyclone, Logan, Utah) and incubated in 5% CO2 at 37° C. Cell cultures were examined for mycoplasma contamination with the fluorescent stain Hoechst 33258 (Hay et al., ATCC Quality Control Methods for Cell Lines, American Type Culture Collection, Manassas, Va., 1992, pp 23-33). All cultures described in the present example were mycoplasma-free.
Two mixtures were prepared. A mixture of collagen type I (rat tail, Sigma, St. Louis, Mo.) was dissolved in 0.1 N acetic acid to produce a 1 mg/ml collagen solution. Chitin was added to 0.1 N acetic acid until a 1 mg/ml mixture was achieved, and the mixture was sonicated for 3 minutes using a Labsonic U sonicator, (Braun Biotech International, Germany). After being autoclaved at 121° C. for 15 minutes, the chitin mixture became a slurry of fine wires. Microtiter tissue culture plates (96-well) were rinsed with Dulbecco's phosphate-buffer saline without Ca^+2 and Mg^+2 (D-PBS, GIBCO BRL). Five microliters of collagen solution or different amounts of the chitin mixture were then added to each well. The plates were then air-dried in a laminar flow hood and stored at 4° C. for up to a week.
Nitric oxide (NO) production was indirectly quantified by measuring the accumulation of nitrite (NO2^−) in the culture media using Griess reagents and sodium nitrite as a standard (Green et al., Anal. Biochem. 126:131-138, 1982; and Ignarro et al., Proc. Natl. Acad. Sci. USA 90:8103-8107, 1993). For nitrite assays, RAW 264.7 cells were subcultured in coated 96-well tissue culture plates at 1×10^5 cells/well and incubated for 24 hours. The culture media were changed to phenol red-free, serum-free DMEM containing 100 U/ml interferon-γ(IFN-γ, recombinant murine; GIBCO BRL) and 100 ng/ml lipopolysaccharide (LPS, Escherichia coli serotype 0128:B12; Sigma). The samples were then tested as described in Rollo et al., J. Leukoc. Biol. 60:397-404, 1996.
To measure the effect of chitin on NO production, cells were subcultured directly in the chitin-coated 96-well tissue culture plates. After overnight incubation, cells became adhered to the bottom of chitin-coated wells. The culture media were removed and replaced with media supplemented with IFN-γ and LPS as described above. After 48 hours incubation, […] of culture supernatants were mixed sequentially with equal volumes of 60 mM sulfanilamide (Sigma) in 3 N HCl and 4 mM N-1-naphthylethylenediamine (Sigma) and then shaken for 5 minutes at room temperature as described in Rollo et al., supra. Nitrite concentration was measured by reading the sample's absorbance at 540 nm using a microplate reader (MRX, Dynex Technologies, Inc., VA).

[2] = test system: RAW 264.7 cells; assay: Cytotoxicity test (MTT cell growth), RAW 264.7; format: cell-based, mouse
Experimental: as §1
Two mixtures were prepared. […]
For chitin cytotoxicity experiment, cells were subcultured in 96-well tissue culture plates precoated with different amount of chitin or with collagen at a density of 2000 cells/well and incubated for 48 hours. […] Cytotoxicity was measured using the dye 3-(4,5-dimethylthiazol-2-yl)-2,5-diphenyl tetrazolium bromide (MTT; Merck Co., Germany) and following the methods described in Mosmann, J. Immunol. […]
The cytotoxicity associated with chitin and chitosan was evaluated for both mouse embryonic fibroblast NIH/3T3 cells and mouse monocyte-macrophage RAW 264.7 cells. […]

[3] = 5 μl per well (1 mg/ml) coated, 48 hours

Which “Nitrite Production” value ([1]; 2 μg/ml in culture medium) does the source give for `CC(=O)N[C@@H]1[C@@H](O)[C@H](O[C@@H]2O[C@H](CO)[C@@H](O[C@@H]3O[C@H](CO)[C@@H](O[C@@H]4O[C@H](CO)[C@@H](O[C@@H]5O[C@H](CO)[C@@H](O)[C@H](O)[C@H]5NC(C)=O)[C@H](O)[C@H]4NC(C)=O)[C@H](O)[C@H]3NC(C)=O)[C@H](O)[C@H]2NC(C)=O)[C@@H](CO)O[C@H]1O` [chitopentose] here?
Its value is 47.0 ± 0.5 µM.

And the “Nitrite Production as Percentage of Control” value ([1]; 2 μg/ml in culture medium)?
Its value is 70.6%.

What about the “Nitrite Production” value ([1]; 10 μg/ml in culture medium) of the same compound?
Its value is 42.7 ± 1.2 µM.

What about the “Nitrite Production as Percentage of Control” value ([1]; 10 μg/ml in culture medium) of the same compound?
Its value is 65.1%.

And the “Effect on NO production, in words (Table 2)” value [1]?
The value was “did substantially decrease NO production”.

How did the “Nitrite Production” value ([1]; 2 μg/ml in culture medium) turn out when `CC(=O)N[C@H]1[C@H](O[C@H]2[C@H](O)[C@@H](NC(C)=O)C(O)O[C@@H]2CO)O[C@H](CO)[C@@H](O[C@@H]2O[C@H](CO)[C@@H](O)[C@H](O)[C@H]2NC(C)=O)[C@@H]1O` (stereo partly shown) [chitotriose] was run?
The value was 61.5 ± 0.9 µM.

What about the “Nitrite Production as Percentage of Control” value ([1]; 2 μg/ml in culture medium) of the same compound?
Its value is 93.8%.

What about the “Nitrite Production” value ([1]; 10 μg/ml in culture medium) of the same compound?
Its value is 61.1 ± 0.2 µM.

And the “Nitrite Production as Percentage of Control” value ([1]; 10 μg/ml in culture medium)?
The value was 93.1%.

Which results are given for chitotetraose?
Nitrite Production ([1]; 2 μg/ml in culture medium): 63.4 ± 0.5 µM; Nitrite Production as Percentage of Control ([1]; 2 μg/ml in culture medium): 96.6%; Nitrite Production ([1]; 10 μg/ml in culture medium): 61.3 ± 0.6 µM; Nitrite Production as Percentage of Control ([1]; 10 μg/ml in culture medium): 93.4%

For `CC(=O)N[C@H]1C(O)O[C@H](CO)[C@@H](O)[C@@H]1O` (stereo partly shown) [NAGA, N-acetylglucosamine, reference compound], which “Cytotoxicity (MTT)” value [2] is on record?
Its value is “not cytotoxic”.

What about the “Nitrite Production” value ([1]; 10 μg/ml in culture medium) of the same compound?
The value was 66.7 ± 0.9 µM.

And the “Nitrite Production as Percentage of Control” value ([1]; 10 μg/ml in culture medium)?
Its value is 102%.

What does the source list for `N[C@H]1C(O)O[C@H](CO)[C@@H](O)[C@@H]1O` (stereo partly shown) [glucosamine, reference compound]?
Cytotoxicity (MTT) [2]: not cytotoxic; Nitrite Production ([1]; 10 μg/ml in culture medium): 64.3 ± 0.8 µM; Nitrite Production as Percentage of Control ([1]; 10 μg/ml in culture medium): 98.0%

With `CC(=O)N[C@H]1[C@H](O[C@H]2[C@H](O)[C@@H](NC(C)=O)[C@H](O[C@H]3[C@H](O)[C@@H](NC(C)=O)C(O)O[C@@H]3CO)O[C@@H]2CO)O[C@H](CO)[C@@H](O[C@@H]2O[C@H](CO)[C@@H](O[C@@H]3O[C@H](CO)[C@@H](O[C@@H]4O[C@H](CO)[C@@H](O)[C@H](O)[C@H]4NC(C)=O)[C@H](O)[C@H]3NC(C)=O)[C@H](O)[C@H]2NC(C)=O)[C@@H]1O` (stereo partly shown) [chitohexose] as the compound, how does the “Nitrite Production” value ([1]; 2 μg/ml in culture medium) read?
The value was 41.3 ± 0.8 µM.

And the “Nitrite Production as Percentage of Control” value ([1]; 2 μg/ml in culture medium)?
Its value is 63%.

And the “Nitrite Production” value ([1]; 10 μg/ml in culture medium)?
The value was 35.8 ± 2.9 µM.

And the “Nitrite Production as Percentage of Control” value ([1]; 10 μg/ml in culture medium)?
Its value is 54.5%.

What about the “Effect on NO production, in words (Table 2)” value [1] of the same compound?
Its value is “did substantially decrease NO production”.

Which results are given for `CC(=O)N[C@H]1[C@H](O[C@H]2[C@H](O)[C@@H](NC(C)=O)C(O)O[C@@H]2CO)O[C@H](CO)[C@@H](O)[C@@H]1O` (stereo partly drawn) [chitobiose, 2-acetamido-2-deoxy-4-O-(2-acetamido-2-deoxy-b-D-glucopyranosyl)-D-glucopyranose]?
Nitrite Production ([1]; 2 μg/ml in culture medium): 64.9 ± 0.8 µM; Nitrite Production as Percentage of Control ([1]; 2 μg/ml in culture medium): 98.9%; Nitrite Production ([1]; 10 μg/ml in culture medium): 64.1 ± 0.9 µM; Nitrite Production as Percentage of Control ([1]; 10 μg/ml in culture medium): 97.7%

For “Collagen: collagen type I (rat tail, Sigma), coating comparison [reference compound]”, which “Nitrite Production” value [1, 3] is on record?
Its value is 73.4 ± 0.9 µM.

What about the “Nitrite Production as Percentage of Control” value [1, 3] of the same compound?
The value was 99%.

What about the “Effect on NO production, in words (Table 1)” value ([1]; conditions of Table 1) of the same compound?
The value was “did not significantly affect NO production”.
